From patent US11192849B2, “Compounds, compositions, and methods for modulating ferroptosis and treating excitotoxic disorders” (THE TRUSTEES OF COLUMBIA UNIVERSITY IN THE CITY OF NEW YORK, priority 2013, dated 2021)
Read-outs that look alike come from different tables or passages of the source.

Test system: HT-1080 cells
Assay: Inhibition of erastin (10 μM)-induced death in HT-1080 cells (Alamar Blue)
Assay type: cell-based, human
Description: Cell viability was typically assessed in 384-well format by Alamar Blue (Invitrogen) fluorescence (ex/em 530/590) measured on a Victor3 platereader (Perkin Elmer, Waltham, Mass.). In some experiments, Trypan Blue dye exclusion counting was performed using an automated cell counter (ViCell, Beckman-Coulter Inc., Brea, Calif.). Cell viability in test conditions is reported as a percentage relative to the negative control treatment.
The ability of various compounds disclosed herein to inhibit death in erastin (10 μM)-treated HT-1080 cells were tested. Cell viability was assessed by Alamar Blue. EC50 values (nM) were computed from dose response curves.
HT-1080 cells are cultured in DMEM containing 10% fetal bovine serum, 1% supplemented non-essential amino acids and 1% pen/strep mixture (Gibco) and maintained in a humidified environment at 37° C. with 5% CO2 in a tissue culture incubator. 1,000 HT-1080 cells are seeded per well in duplicate 384-well plates (Corning) using a BioMek FX liquid handling robot (Beckman Coulter). The next day, the medium is replaced with 36 μL of medium containing 10 μM erastin with 4 μL of medium containing a dilution series (previously prepared) of DMSO, Fer-1 (positive control) or Fer-1 analogs. 24 hours later, 10 μL Alamar Blue (Invitrogen) cell viability solution is added to the growth media to a final concentration of 10%. Cells are incubated a further 6 hours and then the Alamar Blue fluorescence intensity recorded using a Victor 3 platereader (PerkinElmer)(ex/em 530/590). All experiments are performed at least twice and the background (no cells)-subtracted Alamar Blue values for each combination are averaged between replicates.

[1] = Homo sapiens, HT-1080, SI Table 4, various R3 substitutions, read-out: EC50
[2] = Homo sapiens, HT-1080, SI Table 5, read-out: EC50
[3] = Homo sapiens, HT-1080, SI Table 7, read-out: EC50
[4] = Homo sapiens, HT-1080, SI Table 6, read-out: EC50
[5] = Homo sapiens, HT-1080, SI Table 2, analogs with various hydrophobic moieties, read-out: EC50
[6] = Homo sapiens, HT-1080, Table 1 (Example 10), erastin (10 μM)-treated HT-1080 cells, read-out: EC50
[7] = Homo sapiens, HT-1080, SI Table 3, cyclic amines bearing heteroatoms, read-out: EC50

Nc1ccccc1NC1CCCCC1 [SRS8-75, N1-cyclohexylbenzene-1,2-diamine] gave an EC50 [1] of 330 nM.

CCOC(=O)c1ccc(NC2CCCCCCC2)c(NC)c1 [SRS9-14, ethyl 4-(cyclooctylamino)-3-(methylamino)benzoate] was tested, and the EC50 [2] was 70 nM.

For CCOC(=O)c1ccc(NC2CCCCC2)c(NCc2ccccn2)c1 [SRS12-46, ethyl 4-(cyclohexylamino)-3-(pyridin-2-ylmethylamino)-benzoate], the EC50 [3] was 33 nM.

With CCOC(=O)c1ccc(NC2CCCCC2)c(NCc2cccnc2)c1 [SRS13-12, ethyl 4-(cyclohexylamino)-3-(pyridin-3-ylmethylamino)-benzoate] the EC50 [3] was 48 nM.

Molecule CCOC(=O)c1ccc(NC2CCCCC2)c(NCc2ccc(C(F)(F)F)cc2)c1 [SRS12-48, ethyl 4-(cyclohexylamino)-3-(4-(trifluoromethyl)benzylamino)-benzoate] has an EC50 [4] of 46 nM.

Work on CCCCCCCCNc1ccc(C(=O)OCC)cc1N [SRS8-94, ethyl 3-amino-4-(octylamino)benzoate] yielded an EC50 [5] of 80 nM and an EC50 [2] of 80 nM.

CCOC(=O)c1ccc(NC2CCCCC2)c(NCc2ccc([N+](=O)[O-])cc2)c1 [SRS12-36, ethyl 4-(cyclohexylamino)-3-((4-nitrobenzyl)amino)benzoate] showed an EC50 [4] of 36 nM.

In the case of CCOC(=O)c1ccc(NC2CCCCC2)c(NC(=O)OCc2ccccc2)c1 [SRS11-89, ethyl 3-(benzyloxycarbonylamino)-4-(cyclohexylamino)-benzoate], the EC50 [2] is reported as > 10000 nM.

For CCOC(=O)c1ccc(NC2CCCCC2)c(NCc2ccccc2[N+](=O)[O-])c1 [SRS12-71, ethyl 4-(cyclohexylamino)-3-(2-nitrobenzylamino)benzoate], the EC50 [4] was 126 nM.

With CCOC(=O)c1ccc(NC2CCCCC2)c(NC(C)=O)c1 [SRS11-98, ethyl 4-(cyclohexylamino)-3-ethanamidobenzoate] the EC50 [2] was > 10000 nM.

In the case of CCOC(=O)c1ccc(NC23CC4CC(CC(C4)C2)C3)c(NCc2ccccc2)c1 [SRS15-23, ethyl 3-(benzylamino)-4-(1-adamantylamino)benzoate], the EC50 [6] is reported as 23 nM.

Molecule CCOC(=O)c1ccc(NC2CCCCC2)c(NCc2ccc(C#N)cc2)c1 [SRS12-50, ethyl 3-(4-cyanobenzylamino)-4-(cyclohexylamino)benzoate] has an EC50 [4] of 100 nM.

Molecule CCOC(=O)c1ccc(NC2CCCCC2)c(NCc2ccc(Cl)cc2)c1 [SRS12-49, ethyl 3-(4-chlorobenzylamino)-4-(cyclohexylamino)benzoate] has an EC50 [4] of 371 nM.

For CCOC(=O)c1ccc(NC2CCCCC2)c(NCc2ccc(Br)cc2)c1 [SRS12-35, ethyl 3-((4-bromobenzyl)amino)-4-(cyclohexylamino)benzoate], the EC50 [4] was 44 nM.

With CCOC(=O)c1ccc(NC2CCCCC2)c(NCc2ccc(OC)cc2)c1 [SRS12-43, ethyl 4-(cyclohexylamino)-3-((4-methoxybenzyl)amino)-benzoate] the EC50 [4] was 69 nM.

With CCOC(=O)c1ccc(NC2C3CC4CC(C3)CC2C4)c(NCc2ccncc2)c1 (centres unmarked) [SRS15-21, ethyl 4-(2-adamantylamino)-3-((pyridin-4-ylmethyl)amino)-benzoate] the EC50 [6] was 23 nM.

CCOC(=O)c1ccc(NC2CCCCC2)c(NCc2ccc(OC(C)=O)cc2)c1 [Compound 4MO43, ethyl 4-(cyclohexylamino)-3-(4-(ethanoyloxy)benzylamino)-benzoate] was tested, and the EC50 [3] was 47 nM.

With CCOC(=O)c1ccc(NC2CCC(N)CC2)c(N)c1 (centres unmarked) [SRS8-80, ethyl 3-amino-4-(4-aminocyclohexylamino)benzoate] the EC50 [7] was 380 nM.

Molecule CCOC(=O)c1ccc(NC2CCC(C(C)(C)C)CC2)c(NCc2ccncc2)c1 (centres unmarked) [SRS13-30, ethyl 4-(4-tert-butylcyclohexylamino)-3-(pyridin-4-ylmethylamino)benzoate] has an EC50 [3] of 114 nM.

In the case of CCOC(=O)c1ccc(NC2CCCCC2)c(NCc2ccncc2)c1 [SRS12-45, ethyl 4-(cyclohexylamino)-3-((pyridin-4-ylmethyl)amino)-benzoate], the “potency compared with Fer-1” value (HT-1080, erastin (10 μM)) is reported as “more potent than Fer-1” and the EC50 [3] is reported as 25 nM.

In the case of CCOC(=O)c1ccc(NC23CC4CC(CC(C4)C2)C3)c(N)c1 [SRS15-18, ethyl 3-amino-4-(1-adamantylamino)benzoate], the EC50 [6] is reported as 87.7 nM.

CCOC(=O)c1ccc(CNc2cc(C(=O)OCC)ccc2NC2CCCCC2)cc1 [SRS12-84, ethyl 4-(cyclohexylamino)-3-(4-(ethoxycarbonyl)benzylamino)-benzoate] gave an EC50 [3] of 53 nM.

With NCCOCCOC(=O)c1ccc(NC2CCCCC2)c(N)c1 [SRS8-43, 2-(2-aminoethoxy)ethyl 3-amino-4-(cyclohexylamino)benzoate] the EC50 (Homo sapiens, HT-1080, SI Table 4, various R3 substitutions) was 420 nM.

Work on Nc1cc(C(=O)OCCN2CCOCC2)ccc1NC1CCCCC1 [SRS12-47, 2-morpholinoethyl 3-amino-4-(cyclohexylamino)benzoate] yielded an EC50 [1] of 660 nM.

In the case of CCOC(=O)c1ccc(NC2CCCCCCC2)c(NC(=O)OC(C)(C)C)c1 [SRS8-91, ethyl 3-(tert-butoxycarbonylamino)-4-(cyclooctylamino)-benzoate], the EC50 [2] is reported as > 10000 nM.

CCOC(=O)c1ccc(NC2CCN(C(=O)OCC)CC2)c(N)c1 [SRS8-54, ethyl 4-(2-amino-4-(ethoxycarbonyl)phenylamino)piperidine-1-carboxylate] gave an EC50 [7] of 2500 nM.

Work on CCOC(=O)c1ccc(NC2CCCCC2)c(NCc2cccc(F)c2)c1 [SRS12-57, ethyl 4-(cyclohexylamino)-3-(3-fluorobenzylamino)benzoate] yielded an EC50 [4] of 100 nM.

With CCOC(=O)c1ccc(NC2CCCCC2)c(NCc2cc(F)cc(F)c2)c1 [SRS12-59, ethyl 4-(cyclohexylamino)-3-(3,5-difluorobenzylamino)-benzoate] the EC50 [3] was 96 nM.

In the case of CCOC(=O)c1ccc(NC2CCCCC2)c(NCc2cc(OC)cc(OC)c2)c1 [SRS12-53, ethyl 4-(cyclohexylamino)-3-(3,5-dimethoxybenzylamino)-benzoate], the EC50 [3] is reported as 41 nM.

For CCOC(=O)c1ccc(NC23CC4CC(CC(C4)C2)C3)c([N+](=O)[O-])c1 [SRS15-15], the “EC50 (nM)” value (Table 1 (Example 10), erastin (10 μM)-treated HT-1080 cells) was “Not active”.

With c1ccc(-c2ccccn2)nc1 [2,2-bipyridyl, reference compound] the “protection when added after erastin” value (added up to 6 hours after erastin) was “substantial protection from death”.

CC(C)(C)OC(=O)NCCOCCOC(=O)c1ccc(NC2CCCCC2)c(N)c1 [SRS8-37, 2-(2-(tert-butoxycarbonylamino)ethoxy)ethyl 3-amino-4-(cyclohexylamino)benzoate] gave an EC50 [1] of 160 nM.

CCOC(=O)c1ccc(NC2CCCCC2)c(NCc2ccc(F)cc2)c1 [SRS12-33, ethyl 4-(cyclohexylamino)-3-((4-fluorobenzyl)amino)benzoate] gave an EC50 [4] of 50 nM.

Molecule COC(=O)c1ccc(NC2CCCCC2)c(N)c1 [SRS8-61, methyl 3-amino-4-(cyclohexylamino)benzoate] has an EC50 [1] of 150 nM.

Work on CCOC(=O)c1ccc(NC2CCCCC2)c(NCc2cc(F)cc(Br)c2)c1 [SRS12-52, ethyl 3-(3-bromo-5-fluorobenzylamino)-4-(cyclohexylamino)-benzoate] yielded an EC50 [3] of 105 nM.

For CCOC(=O)c1ccc(NC2CCCCCC2)c(N)c1 [SRS8-90], the EC50 (SI Table 2, analogs with various hydrophobic moieties, read-out: EC50) was 130 nM.

CCOC(=O)c1ccc(NC2CCCCC2)c(NCc2cccc(Cl)c2)c1 [SRS12-58, ethyl 3-(3-chlorobenzylamino)-4-(cyclohexylamino)benzoate] gave an EC50 [4] of 41 nM.

For NOCC(=O)O [AOA, aminooxyacetic acid, reference compound], the “prevention of erastin-induced death” value (erastin-treated HT-1080 cells) was “rescued both HT-1080 and BJeLR cells from erastin-induced ferroptosis”.

CC(C)(C)OC(=O)c1ccc(NC2CCCCCCC2)c(N)c1 [SRS8-87, tert-butyl 3-amino-4-(cyclooctylamino)benzoate] gave an EC50 [1] of 90 nM.

For CCCCCCCCN(CCCCCCCC)c1ccc(C(=O)OCC)cc1N [SRS12-12, ethyl 3-amino-4-(dioctylamino)benzoate], the EC50 [2] was 15300 nM.

Molecule CCCCCCCCCCOC(=O)c1ccc(NC2CCCCC2)c(N)c1 [SRS12-29, decyl 3-amino-4-(cyclohexylamino)benzoate] has an EC50 [1] of 76 nM.

For CCOC(=O)c1ccc(NC2C3CC4CC(C3)CC2C4)c(N(Cc2ccccc2)Cc2ccccc2)c1 (centres unmarked) [SRS15-20_di, ethyl 3-(dibenzylamino)-4-(2-adamantylamino)benzoate], the EC50 [6] was 914 nM.

CCOC(=O)c1ccc(NC2CCCCCCCCCCC2)c(N)c1 [SRS9-06, ethyl 3-amino-4-(cyclododecylamino)benzoate] gave an EC50 [5] of 70 nM.

With CCOC(=O)c1ccc(NC2CCCCC2)c(NCc2ccc3ccccc3c2)c1 [SRS12-51, ethyl 4-(cyclohexylamino)-3-(naphthalen-2-ylmethylamino)-benzoate] the EC50 [3] was 58 nM.

Work on CCOC(=O)c1ccc(NC2CCCCC2)c(NCc2ccc(C(=O)OC)cc2)c1 [SRS12-80, ethyl 4-(cyclohexylamino)-3-(4-(methoxycarbonyl)-benzylamino)benzoate] yielded an EC50 [3] of 33 nM.
